How the values were obtained:
[1] = test system: neural stem cells (clone C17.2); assay: Cell number and growth of neural stem cells under mimosine and GCV; format: cell-based, murine
Excerpt: Medium was changed every third day. […] Medium was replaced on day 4 and day 6.
In contrast, untreated neural stem cell cultures continued proliferating over the same period, reaching a density of 1.7×10^6 cells/ml on day 10. […] Re-growth of neural stem cells occurred at a faster rate if cells were additionally rinsed and split 1:8 after removal of drug(s) on day 10.

[2] = test system: neural stem cells (clone C17.2); assay: Cytopathic effect and morphology of neural stem cells (drug treatment, virus infection); details: for cell morphology: cells below confluency, mimosine 400 μM
Procedure: Neural stem cells were grown in 24-well plates until they reached confluency (approximately 400,000 cells/well). Medium was changed every third day. […] Medium was replaced on day 4 and day 6. […] Cell culture medium was changed again on days 10, 13 and 17. […] Cell morphology and cells/well for different treatment conditions were determined in duplicate on days 0, 4, 7, 10, 13, and 17. The number of cells/well was determined using a Coulter Counter (Coulter Electronics, Hialeah, Fla.).
Virus titers in the conditioned medium—and in some experiments also in cell lysates—were determined by standard plaque tests on Vero cells. […] Also, the influence of the expression of viral proteins VP 16 and ICP6 (RR), mediated by infection with amplicon vectors, on the replication of hrR3 mutant virus was determined at different time points after infection of neural stem cells. Stocks of helper-free packaged amplicons HSV 16. HSVRR and HSVIacZ (100 μl each) were added to the wells on day 7, 10, or 13. Three days later titers of hrR3 in the medium were determined by plaque assay.
The genotype of hrR3 is RR- LacZ^+ [Goldstein and Weller, Virology 166: 141-51, 1988] with the lacZ gene under control of the ICP6 early viral promoter. RRP450 was derived from hrR3 by replacement of the lacZ gene with the cytochrome P450 gene [Chase et al., Nat Biotechnol 16: 444-8, 1998].

hrR3 = assay: Dexamethasone treatment of hrR3-infected, mimosine/GCV-treated neural stem cell cultures; format: cell-based, HSV-1; details: dexamethasone 10^-7 M on day 10; detection level

`Nc1nc(O)c2ncn(COC(CO)CO)c2n1` [GCV, ganciclovir] was tested, and the cell viability ([1]; 5 μM added from day 6, compared to mimosine alone) was “did not significantly affect cell viability” and the cell morphology [2] was “did not change this morphology”.
`C[C@@H]1C[C@H]2[C@@H]3CCC4=CC(=O)C=C[C@]4(C)[C@@]3(F)[C@@H](O)C[C@]2(C)[C@@]1(O)C(=O)CO` [dexamethasone] was tested, and the “virus titers in the media and cell lysates” value (hrR3) was < 10 pfu/100,000 cells.
For `NC(Cn1ccc(=O)c(O)c1)C(=O)O` (stereo not drawn) [mimosine], the “treatment time at which block of cell division and viral replication is reversible” value [1] was at least 13 days, the Cells/well ([1]; 400 μM, 4 and 7 days after beginning of treatment) was “around 400,000 cells” and the “cell number of infected cultures kept on treatment” value ([1]; infected MOI 1 day 7, day 13 and 17) was “remained at the same cell number”. For the same compound, the “growth after removal of drug” value ([1]; removed on day 10) was “growth of neural stem cells resumed”, the “virally induced CPE in presence of drug” value [2] was “prevented virally induced CPE” and the cell morphology [2] was “developed extensions and a more neuronal shape”. For the same compound, the CPE ([2]; day 13, infected day 7, split 1:8 into drug-free media day 10) was “some cytopathic effect”, the CPE ([2]; day 13, infected, not split) was “no CPE” and the CPE ([2]; day 17, infected and split) was “extensive CPE”. The CPE ([2]; day 17, infected, non-split) was “some CPE”, the “cytopathic effect associated with virus replication” value ([2]; infection at MOI of 10) was “typical cytopathic effect” and the “cytopathic effect of drug alone” value ([2]; uninfected) was “did not induce a significant cytopathic effect”.
